We go through 26 compounds from patent publication US7449477B2, “7-phenyl-isoquinoline-5-sulfonylamino derivatives as inhibitors of akt (protein kinase B)” (Eli Lilly and Company, priority 2003, dated 2008).

The target of this assay is T1, active human Akt1 (Homo sapiens, UniProt P31749).
T1 construct: Active human recombinant Akt1 (full-length) purified from Sf9 insect cells; purchased Upstate Biotechnology, Inc. 14-276; host or cells: Sf9 insect cells
The experiment in a line: Akt1 Phosphorylation Assay (phosphocellulose filter-binding, 33P-Crosstide). The assay is classed as biochemical. The conditions noted are these: active human recombinant Akt1 (full-length) 10 nM; 12.5 μM Crosstide; 20 μM ATP; 30 minutes at room temperature. The protocol: Akt1 Phosphorylation Assay
The assay described measures the phosphorylation of Crosstide by active human Akt1 and other Akt isoforms. Crosstide contains a consensus sequence derived from Akt substrates GSK3b and forkhead transcription factors (FKs). The ^33P-labeled Crosstide substrate is captured by phosphocellulose membrane filter plates.
Active human recombinant Akt1 (full-length) purified from Sf9 insect cells is from Upstate Biotechnology, Inc. (Cat. #14-276, 405 μg/ml). Crosstide substrate, NH2-GRPRTSSFAEG-COOH (M.W.1164) is purchased from Multiple Peptide System (Cat. # L59/GR145-153).
Solution (A): 20% DMSO (dimethylsulphoxide) or Compound in 20% DMSO; Solution (B): Assay Buffer Mix: 31.25 μM Crosstide, 37.5 mM MgCl2, 87.5 mM HEPES, pH 7.3, 50 μM ATP γ-^33P-ATP, 0.05 μCi/μl; Solution (C): Akt Kinase Mix: 31.25 mM HEPES, pH 7.3; 1 mM DTT, 25 nM UBI Akt1.
Procedure for Phosphocellulose Filter-Binding Assay
Ten μl of Solution (A) are first mixed with 20 μl Solution (B). The enzymatic reaction is initiated by adding 20 μl Solution (C) to the mixture. (Final concentration or amount in a 50-μl reaction mix: 4% DMSO or various compound concentration in 4% DMSO; 12.5 μM Crosstide; 15 mM MgCl2; 35 mM HEPES, pH7.3; 20 μM ATP; 1 μCi γ-^33P-ATP; 0.4 mM DTT; 10 nM UBI Akt1.) The reactions are performed in 96-well microtiter plates.
After 30 minutes at room temperature, the reaction is terminated by adding 80 μl of 10% H3PO4. An aliquot of 100 μl from each well is transferred to the phosphocellulose filter plate (Millipore MultiScreen, Catalog #MAPHN0B50). After 30 minutes, the reaction mix is filtered with a Millipore manifold following by 3 washes with 0.5% H3PO4. The filter is then vacuum-dried and the plate is fitted onto a Packard carrier. 100 μl/well Microscint20 are added and the contents are counted in a Packard Top Count.

Structures are written as SMILES. Where a name gives a salt, the structure may show the parent alone.

Broadly, the IC50 is the concentration needed to halve the response being measured.

T1 sequence (P31749 whole entry): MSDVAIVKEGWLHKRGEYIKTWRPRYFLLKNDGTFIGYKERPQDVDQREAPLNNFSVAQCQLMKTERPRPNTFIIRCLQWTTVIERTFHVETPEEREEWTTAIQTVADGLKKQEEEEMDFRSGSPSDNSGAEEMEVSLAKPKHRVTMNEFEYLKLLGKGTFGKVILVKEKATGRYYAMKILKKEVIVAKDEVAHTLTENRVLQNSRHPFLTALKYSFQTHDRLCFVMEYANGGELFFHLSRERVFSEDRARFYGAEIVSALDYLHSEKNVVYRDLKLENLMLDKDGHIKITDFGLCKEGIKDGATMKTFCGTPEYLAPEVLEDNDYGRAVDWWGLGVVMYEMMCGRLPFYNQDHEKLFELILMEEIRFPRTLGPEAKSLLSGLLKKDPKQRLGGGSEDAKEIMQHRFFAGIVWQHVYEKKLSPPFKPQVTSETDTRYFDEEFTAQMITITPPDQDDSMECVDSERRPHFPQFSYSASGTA

Take `N#Cc1cccc(CCCNCCNS(=O)(=O)c2cc(-c3ccccc3)cc3cnccc23)c1` [Example 32, 7-Phenyl-isoquinoline-5-sulfonic acid {2-[3-(3-cyanophenyl)-propylamino]-ethyl}-amide, dihydrochloride salt]: the IC50 was not above 2 µM. With `O=[N+]([O-])c1cccc(CCCNCCNS(=O)(=O)c2cc(-c3ccccc3)cc3cnccc23)c1` [Example 101, 7-Phenyl-isoquinoline-5-sulfonic acid {2-[3-(3-nitro-phenyl)-propylamino]-ethyl}-amide, dihydrochloride salt], the IC50 is not above 2 µM. Take `O=S(=O)(NCCNCCCc1cccc(Cl)c1Cl)c1cc(-c2ccccc2)cc2cnccc12` [Example 66, 7-Phenyl-isoquinoline-5-sulfonic acid {2-[3-(2,3-dichlorophenyl)-propylamino]-ethyl}-amide, dihydrochloride salt]: the IC50 is not above 2 µM. As to `Nc1cccc(-c2cc(S(=O)(=O)NCCNCCCc3ccc([N+](=O)[O-])cc3)c3ccncc3c2)c1` [Example 92, 7-(3-aminophenyl)-isoquinoline-5-sulfonic acid [2-(3-(4-nitrophenyl)-propylamino)-ethyl]-amide, trihydrochloride salt], the IC50 is not above 2 µM. The value for `O=S(=O)(NCCNCCCc1cccc(F)c1F)c1cc(-c2ccccc2)cc2cnccc12` [Example 68, 7-Phenyl-isoquinoline-5-sulfonic acid {2-[3-(2,3-difluorophenyl)-propylamino]-ethyl}-amide, dihydrochloride salt] was not above 2 µM; that for `O=[N+]([O-])c1cccc(C(O)CCNCCNS(=O)(=O)c2cc(-c3ccccc3)cc3cnccc23)c1` (centres unmarked) [Example 77, 7-Phenyl-isoquinoline-5-sulfonic acid [2-(3-hydroxy-3-(3-nitrophenyl)-propylamino)-ethyl]-amide, dihydrochloride salt] was not above 2 µM.

Consider `O=S(=O)(NCCNCCCc1ccc(O)cc1)c1cc(-c2ccccc2)cc2cnccc12` [Example 19, 7-Phenyl-isoquinoline-5-sulfonic acid {2-[3-(4-hydroxyphenyl)-propylamino]-ethyl}-amide, dihydrochloride salt], for which the IC50 is not above 2 µM. With `O=S(=O)(NCCNCCCc1ccccc1N1C=CC=NC=C1)c1cc(-c2ccccc2)cc2cnccc12` [Example 7, 7-Phenyl-isoquinoline-5-sulfonic acid {2-[3-(2-[1,4]diazepin-1-yl-phenyl)-propylamino]-ethyl}-amide, tetrahydrochloride salt], the IC50 was not above 2 µM. For `O=S1(=O)CCN(c2cc(Cl)ccc2CCCNCCNS(=O)(=O)c2cc(-c3ccccc3)cc3cnccc23)CC1` [Example 52, 7-Phenyl-isoquinoline-5-sulfonic acid {2-[3-(4-chloro-2-(1,1-dioxo-thiomorpholin-4-yl)-phenyl)-propylamino]-ethyl}-amide, trihydrochloride salt], the IC50 was not above 2 µM.

Consider `O=S(=O)(NCCNCCCc1cccc(O)c1)c1cc(-c2ccccc2)cc2cnccc12` [Example 18, 7-Phenyl-isoquinoline-5-sulfonic acid {2-[3-(3-hydroxyphenyl)-propylamino]-ethyl}-amide, dihydrochloride salt], for which the IC50 is not above 2 µM. For the compound `CN(C)S(=O)(=O)c1ccc(CCCNCCNS(=O)(=O)c2cc(-c3ccccc3)cc3cnccc23)cc1` [Example 24, 7-Phenyl-isoquinoline-5-sulfonic acid {2-[3-(4-(N,N-dimethyl-aminosulfonyl)phenyl)-propyl-amino]-ethyl}-amide, dihydrochloride salt], the IC50 is not above 2 µM. Take `COC(=O)c1cc([N+](=O)[O-])ccc1CCCNCCNS(=O)(=O)c1cc(-c2ccccc2)cc2cnccc12` [Example 62, 7-Phenyl-isoquinoline-5-sulfonic acid {2-[3-(2-methoxycarbonyl-4-nitrophenyl)-propylamino]-ethyl}-amide, dihydrochloride salt]: the IC50 is not above 2 µM.

Consider `O=[N+]([O-])c1ccc([C@@H](O)CCNCCNS(=O)(=O)c2cc(-c3ccccc3)cc3cnccc23)cc1` [Example 82, (S)-7-Phenyl-isoquinoline-5-sulfonic acid [2-(3-hydroxy-3-(4-nitrophenyl)-propylamino)-ethyl]-amide, mesylate salt], for which the IC50 was not above 2 µM. Take `O=[N+]([O-])c1ccc(CCCNCCNS(=O)(=O)c2cc(-c3ccccc3O)cc3cnccc23)cc1` [Example 91, 7-(2-hydroxy-phenyl)-isoquinoline-5-sulfonic acid {2-[3-(4-nitro-phenyl)-propylamino]-ethyl}-amide, dihydrochloride salt]: the IC50 is not above 2 µM. In the case of `CN1CCN(c2cc(Cl)ccc2CCCNCCNS(=O)(=O)c2cc(-c3ccccc3)cc3cnccc23)CC1` [Example 49, 7-Phenyl-isoquinoline-5-sulfonic acid {2-[3-(4-chloro-2-(4-methyl-piperazin-1-yl)-phenyl)-propylamino]-ethyl}-amide, tetrahydrochloride salt], the IC50 is not above 2 µM. In the case of `O=S(=O)(NCCNCCCc1ccc(Cl)cc1Cl)c1cc(-c2ccccc2)cc2cnccc12` [Example 65, 7-Phenyl-isoquinoline-5-sulfonic acid {2-[3-(2,4-dichlorophenyl)-propylamino]-ethyl}-amide, dihydrochloride salt], the IC50 was not above 2 µM. In the case of `O=S(=O)(NCCNCCC(O)c1ccc(S(=O)(=O)C(F)(F)F)cc1)c1cc(-c2ccccc2)cc2cnccc12` (centres unmarked) [Example 80, 7-Phenyl-isoquinoline-5-sulfonic acid [2-(3-hydroxy-3-(4-trifuoromethanesulfonyl-phenyl)-propylamino)-ethyl]-amide, dihydrochloride salt], the IC50 is not above 2 µM. With `O=S(=O)(NCCNCCCc1cccc(O)c1)c1cc(-c2cccc(O)c2)cc2cnccc12` [Example 107, 7-(3-Hydroxy-phenyl)-isoquinoline-5-sulfonic acid {2-[3-(3-hydroxy-phenyl)-propylamino]-ethyl}-amide], the IC50 is not above 2 µM. Turning to `O=S(=O)(NCCNCCCc1ccc(Br)cc1)c1cc(-c2ccccc2)cc2cnccc12` [Example 4, 7-Phenyl-isoquinoline-5-sulfonic acid {2-[3-(4-bromophenyl)-propylamino]-ethyl}-amide, dihydrochloride salt], the IC50 is not above 2 µM. The value for `N#Cc1ccc(CCCNCCNS(=O)(=O)c2cc(-c3ccccc3)cc3cnccc23)cc1` [Example 33, 7-Phenyl-isoquinoline-5-sulfonic acid {2-[3-(4-cyanophenyl)-propylamino]-ethyl}-amide, dihydrochloride salt] was not above 2 µM; that for `CS(=O)(=O)c1ccc(C(O)CCNCCNS(=O)(=O)c2cc(-c3ccccc3)cc3cnccc23)cc1` (centres unmarked) [Example 79, 7-Phenyl-isoquinoline-5-sulfonic acid [2-(3-hydroxy-3-(4-methanesulfonyl-phenyl)-propylamino)-ethyl]-amide, dihydrochloride salt] was not above 2 µM. As for `Cc1ccc([N+](=O)[O-])cc1CCCNCCNS(=O)(=O)c1cc(-c2ccccc2)cc2cnccc12` [Example 39, 7-Phenyl-isoquinoline-5-sulfonic acid {2-[3-(2-methyl-5-nitrophenyl)-propylamino]-ethyl}-amide, dihydrochloride salt], the IC50 was not above 2 µM.

With `O=S(=O)(NCCNCCCc1ccc(Cl)cc1OC1CCNC1)c1cc(-c2ccccc2)cc2cnccc12` (centres unmarked) [Example 56, 7-Phenyl-isoquinoline-5-sulfonic acid {2-[3-(4-chloro-2-(pyrrolidin-3-yl)oxy-phenyl)-propylamino]-ethyl}-amide, trihydrochloride salt], the IC50 was not above 2 µM. The value for `CSc1ccc(CCCNCCNS(=O)(=O)c2cc(-c3ccccc3)cc3cnccc23)cc1` [Example 35, 7-Phenyl-isoquinoline-5-sulfonic acid {2-[3-(4-methylthiophenyl)-propylamino]-ethyl}-amide, dihydrochloride salt] was not above 2 µM; that for `Cc1cc(C#N)ccc1CCCNCCNS(=O)(=O)c1cc(-c2ccccc2)cc2cnccc12` [Example 104, 7-Phenyl-isoquinoline-5-sulfonic acid {2-[3-(4-cyano-2-methyl-phenyl)-propylamino]-ethyl}-amide, dihydrochloride salt] was not above 2 µM. For `COc1cc([N+](=O)[O-])ccc1CCCNCCNS(=O)(=O)c1cc(-c2ccccc2)cc2cnccc12` [Example 63, 7-Phenyl-isoquinoline-5-sulfonic acid {2-[3-(2-methoxy-4-nitrophenyl)-propylamino]-ethyl}-amide, dihydrochloride salt], the half-maximal inhibitory concentration (IC50) was not above 2 µM.
